Reference: patent publication US20220273684A1, “Systems and Methods to Identify Pancreatic Ductal Adenocarcinoma and Uses Thereof” (The Board of Trustees of the Leland Stanford Junior …, priority 2021, published 2022)

Tests used:
[1] = system: acinar cell-derived PDAC cell lines; experiment: Cell viability assay (MTT) after incubation with drug, acinar cell-derived PDAC cell lines; assay type: cell-based
Protocol: (§1) FIGS. 4A-4E illustrate exemplary data that acinar and ductal cell-derived pancreatic cancer cells have different sensitivities to multiple therapeutic agents in accordance with various embodiments of the invention. FIG. 4A illustrates an exemplary method to identify agents to treat specific types of tumors and/or treating an individual based on tumor signature. FIG. 4B illustrates a schematic of the experimental setup. FIG. 4C illustrates cell viability after a 24 hour incubation with 25 μM of GSK-3β inhibitor, TDZD-8. FIG. 4D illustrates cell viability after a 48 hour incubation with 1 mM of glucose analog, 2-DG. FIG. 4E illustrates cell viability after a 72 hour incubation with 100 μM of AKT kinase inhibitor, Capivasertib.
Turning to FIGS. 4A-4E, various embodiments are capable of identifying agents to treat specific types of tumors and/or treating an individual based on tumor signature. Specifically, FIG. 4A illustrates a method 400 to test one or more treatments against tumor-derived cells. At 402, many embodiments obtain one or more cultures of cells. […]
Turning back to FIG. 4A, after treatment, many embodiments assess cellular growth at 408. Cellular growth can be assessed manually or automatedly. […]

[2] = system: ductal cell-derived PDAC cell lines; experiment: Cell viability assay (MTT) after incubation with drug, ductal cell-derived PDAC cell lines; assay type: cell-based; conditions: 72 hour incubation with 100 μM Capivasertib; ductal cell-derived relative to acinar cell-derived PDAC lines (FIG. 4E)
Protocol: as §1, with “Capivasertib. Turning to FIGS. 4A-4E, various embodiments are capable of identifying agents to treat specific types of tumors and/or treating an individual based on tumor signature. Specifically, FIG. 4A illustrates a method 400 to test one or more treatments against tumor-derived cells. At 402, many embodiments obtain one or more cultures of cells. In various embodiments, the derived tumor cells are obtained as an admixture of cells, while some embodiments obtain cells as a single type (e.g., healthy, acinar cell-derived, or ductal cell-derived). […] Cellular growth can be assessed manually or automatedly. […]” for “Capivasertib.”

`OCC1OC(O)CC(O)C1O` (stereo not drawn) [2-DG] was tested, and the cell viability ([1]; 48 hour incubation with 1 mM 2-DG, acinar cell-derived relative to ductal cell-derived PDAC lines (FIG. 4D)) was “increased viability”.

For `Cn1sc(=O)n(Cc2ccccc2)c1=O` [TDZD-8], the cell viability ([1]; 24 hour incubation with 25 μM TDZD-8, acinar cell-derived relative to ductal cell-derived PDAC lines (FIG. 4C)) was “increased viability”.

`NC1(C(=O)N[C@@H](CCO)c2ccc(Cl)cc2)CCN(c2ncnc3[nH]ccc23)CC1` [Capivasertib] was tested, and the cell viability [2] was “increased viability”.
